Results taken from paper PMC7265341, “Quantifying CDK inhibitor selectivity in live cells” (Nature Communications, 2020).
pIC50: −log10 of the molar value. Read-outs that look alike come from different tables or passages of the source.

How the values were obtained:
CDK20/Cyclin H = CDK20/Cyclin H (Homo sapiens, UniProt Q8IZL9); test: NanoBRET live-cell target engagement, NanoLuc-CDK20/Cyclin H in HEK-293; assay type: binding; conditions: 10µM, read-out: CDK20/H Inhibition at 10µM (%)
CDK8/Cyclin C = CDK8/Cyclin C (Homo sapiens, UniProt P49336); test: NanoBRET live-cell target engagement, NanoLuc-CDK8/Cyclin C in HEK-293; assay type: binding; conditions: 10µM, read-out: CDK8/C Inhibition at 10µM (%)
CDK14/Cyclin Y = CDK14/Cyclin Y (Homo sapiens, UniProt O94921); test: NanoBRET live-cell target engagement, CDK14-NanoLuc/Cyclin Y in HEK-293; assay type: binding; conditions: for inhibition at 10 µM: read-out: CDK14/Y Inhibition at 10µM (%)
CDK9/Cyclin K = CDK9/Cyclin K (Homo sapiens, UniProt P50750); test: NanoBRET live-cell target engagement, NanoLuc-CDK9/Cyclin K in HEK-293; assay type: binding; conditions: 10µM, read-out: CDK9/K Inhibition at 10µM (%)
Chain of CDK9/Cyclin K (P50750 whole entry): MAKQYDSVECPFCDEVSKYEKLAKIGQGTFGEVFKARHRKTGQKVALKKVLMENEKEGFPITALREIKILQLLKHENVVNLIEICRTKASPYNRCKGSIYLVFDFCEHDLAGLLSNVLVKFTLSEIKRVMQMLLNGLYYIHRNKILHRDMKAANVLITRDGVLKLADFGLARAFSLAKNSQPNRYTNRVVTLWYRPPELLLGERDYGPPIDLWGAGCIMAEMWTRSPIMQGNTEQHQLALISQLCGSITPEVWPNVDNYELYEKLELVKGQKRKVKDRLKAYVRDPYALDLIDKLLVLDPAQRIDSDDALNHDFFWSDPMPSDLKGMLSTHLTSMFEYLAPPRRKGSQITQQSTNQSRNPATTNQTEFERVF
Chain of CDK9/Cyclin K (O75909 whole entry partner): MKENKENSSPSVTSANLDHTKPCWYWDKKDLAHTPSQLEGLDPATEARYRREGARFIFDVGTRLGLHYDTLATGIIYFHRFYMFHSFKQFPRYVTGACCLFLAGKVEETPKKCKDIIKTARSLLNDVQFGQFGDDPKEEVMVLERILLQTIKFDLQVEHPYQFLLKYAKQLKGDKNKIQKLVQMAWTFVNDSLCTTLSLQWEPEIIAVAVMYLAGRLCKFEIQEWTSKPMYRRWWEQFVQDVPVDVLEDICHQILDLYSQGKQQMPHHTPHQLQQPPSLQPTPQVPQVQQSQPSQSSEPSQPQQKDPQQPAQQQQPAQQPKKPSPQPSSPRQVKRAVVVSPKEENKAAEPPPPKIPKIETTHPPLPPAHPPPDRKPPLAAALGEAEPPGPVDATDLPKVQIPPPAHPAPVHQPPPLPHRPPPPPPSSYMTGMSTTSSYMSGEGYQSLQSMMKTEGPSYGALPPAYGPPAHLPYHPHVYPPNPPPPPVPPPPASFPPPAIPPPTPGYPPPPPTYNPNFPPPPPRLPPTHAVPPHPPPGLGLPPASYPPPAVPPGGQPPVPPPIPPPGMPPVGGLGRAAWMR

CDK16/Cyclin Y = CDK16/Cyclin Y (Homo sapiens, UniProt Q00536); test: NanoBRET live-cell target engagement, CDK16-NanoLuc/Cyclin Y in HEK-293; assay type: binding; conditions: 10µM, read-out: CDK16/Y Inhibition at 10µM (%)
CDK18/Cyclin Y = CDK18/Cyclin Y (Homo sapiens, UniProt Q07002); test: NanoBRET live-cell target engagement, CDK18-NanoLuc/Cyclin Y in HEK-293; assay type: binding; conditions: for inhibition at 10 µM: read-out: CDK18/Y Inhibition at 10µM (%); for pIC50: read-out: CDK18/Y IC50
Chain of CDK18/Cyclin Y (Q07002 whole entry): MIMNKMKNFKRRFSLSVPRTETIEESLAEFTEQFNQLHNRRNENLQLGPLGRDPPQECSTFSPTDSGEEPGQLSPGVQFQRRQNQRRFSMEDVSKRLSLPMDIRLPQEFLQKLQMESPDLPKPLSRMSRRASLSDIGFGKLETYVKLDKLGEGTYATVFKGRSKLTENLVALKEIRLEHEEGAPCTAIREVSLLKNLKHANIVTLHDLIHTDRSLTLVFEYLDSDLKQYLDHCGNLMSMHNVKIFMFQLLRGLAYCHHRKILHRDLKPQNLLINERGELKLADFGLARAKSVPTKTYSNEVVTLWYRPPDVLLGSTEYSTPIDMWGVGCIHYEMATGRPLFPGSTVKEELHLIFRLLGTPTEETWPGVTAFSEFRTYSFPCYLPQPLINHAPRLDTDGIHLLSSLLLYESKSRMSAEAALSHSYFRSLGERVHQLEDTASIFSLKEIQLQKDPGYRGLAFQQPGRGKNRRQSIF
Chain of CDK18/Cyclin Y (Q8ND76 whole entry partner): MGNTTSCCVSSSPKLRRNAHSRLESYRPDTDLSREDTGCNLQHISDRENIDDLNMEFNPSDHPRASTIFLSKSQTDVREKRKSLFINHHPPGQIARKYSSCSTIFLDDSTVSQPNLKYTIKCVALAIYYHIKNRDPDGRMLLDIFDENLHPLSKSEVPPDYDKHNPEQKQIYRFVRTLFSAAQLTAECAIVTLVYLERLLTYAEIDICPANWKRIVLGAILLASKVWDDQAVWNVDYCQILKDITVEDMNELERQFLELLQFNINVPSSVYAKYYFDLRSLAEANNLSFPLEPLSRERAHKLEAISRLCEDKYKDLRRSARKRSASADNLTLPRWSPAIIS

CDK12/Cyclin K = CDK12/Cyclin K (Homo sapiens, UniProt Q9NYV4); test: NanoBRET live-cell target engagement, CDK12-NanoLuc/Cyclin K in HEK-293; assay type: binding; conditions: for inhibition at 10 µM: read-out: CDK12/K Inhibition at 10µM (%); for pIC50: read-out: CDK12/K IC50
Chain of CDK12/Cyclin K (Q9NYV4 1-1481 isoform Q9NYV4-2): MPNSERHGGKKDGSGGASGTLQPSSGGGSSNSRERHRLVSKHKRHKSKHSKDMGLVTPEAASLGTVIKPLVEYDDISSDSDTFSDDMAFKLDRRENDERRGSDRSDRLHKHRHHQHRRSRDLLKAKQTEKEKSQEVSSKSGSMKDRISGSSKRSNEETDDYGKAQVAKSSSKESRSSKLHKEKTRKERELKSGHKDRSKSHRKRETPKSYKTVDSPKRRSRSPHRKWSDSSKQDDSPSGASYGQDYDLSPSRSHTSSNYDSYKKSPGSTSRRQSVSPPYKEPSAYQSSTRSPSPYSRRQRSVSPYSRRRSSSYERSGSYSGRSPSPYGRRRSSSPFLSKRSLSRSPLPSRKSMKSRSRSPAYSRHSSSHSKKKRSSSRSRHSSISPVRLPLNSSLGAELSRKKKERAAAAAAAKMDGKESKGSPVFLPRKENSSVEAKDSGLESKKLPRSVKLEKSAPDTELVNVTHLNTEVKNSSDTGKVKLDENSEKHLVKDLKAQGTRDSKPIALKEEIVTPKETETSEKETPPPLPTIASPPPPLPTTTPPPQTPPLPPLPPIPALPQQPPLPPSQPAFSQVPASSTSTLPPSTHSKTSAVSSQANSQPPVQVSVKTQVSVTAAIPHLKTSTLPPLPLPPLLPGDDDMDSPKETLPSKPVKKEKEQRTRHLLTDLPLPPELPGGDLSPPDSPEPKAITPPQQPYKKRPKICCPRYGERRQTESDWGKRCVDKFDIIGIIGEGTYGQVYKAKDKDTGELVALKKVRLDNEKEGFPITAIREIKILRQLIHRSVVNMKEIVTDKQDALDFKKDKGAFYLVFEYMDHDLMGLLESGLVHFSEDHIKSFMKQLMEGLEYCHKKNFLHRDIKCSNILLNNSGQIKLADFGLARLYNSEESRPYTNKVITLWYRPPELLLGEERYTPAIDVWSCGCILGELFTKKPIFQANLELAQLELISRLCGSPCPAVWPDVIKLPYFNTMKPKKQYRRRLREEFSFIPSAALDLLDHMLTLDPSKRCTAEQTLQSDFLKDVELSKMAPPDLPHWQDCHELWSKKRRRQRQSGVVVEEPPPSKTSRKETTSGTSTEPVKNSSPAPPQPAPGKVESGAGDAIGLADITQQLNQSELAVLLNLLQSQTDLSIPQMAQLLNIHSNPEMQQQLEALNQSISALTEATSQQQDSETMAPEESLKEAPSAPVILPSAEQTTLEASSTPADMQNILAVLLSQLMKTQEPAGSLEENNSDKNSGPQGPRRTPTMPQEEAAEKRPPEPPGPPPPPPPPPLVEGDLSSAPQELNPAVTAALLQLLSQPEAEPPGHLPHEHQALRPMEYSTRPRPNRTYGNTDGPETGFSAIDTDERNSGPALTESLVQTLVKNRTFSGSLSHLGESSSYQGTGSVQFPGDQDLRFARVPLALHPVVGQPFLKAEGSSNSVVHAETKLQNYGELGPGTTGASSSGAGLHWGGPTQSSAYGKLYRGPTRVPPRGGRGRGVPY
Chain of CDK12/Cyclin K (O75909 whole entry partner): as the sequence (O75909 whole entry partner) above

CDK15/Cyclin Y = CDK15/Cyclin Y (Homo sapiens, UniProt Q96Q40); test: NanoBRET live-cell target engagement, NanoLuc-CDK15/Cyclin Y in HEK-293; assay type: binding; conditions: for inhibition at 10 µM: read-out: CDK15/Y Inhibition at 10µM (%); for pIC50: read-out: CDK15/Y IC50
CDK19/Cyclin C = CDK19/Cyclin C (Homo sapiens, UniProt Q9BWU1); test: NanoBRET live-cell target engagement, NanoLuc-CDK19/Cyclin C in HEK-293; conditions: read-out: CDK19/C Inhibition at 10µM (%), 10µM
Chain of CDK19/Cyclin C (Q9BWU1 whole entry): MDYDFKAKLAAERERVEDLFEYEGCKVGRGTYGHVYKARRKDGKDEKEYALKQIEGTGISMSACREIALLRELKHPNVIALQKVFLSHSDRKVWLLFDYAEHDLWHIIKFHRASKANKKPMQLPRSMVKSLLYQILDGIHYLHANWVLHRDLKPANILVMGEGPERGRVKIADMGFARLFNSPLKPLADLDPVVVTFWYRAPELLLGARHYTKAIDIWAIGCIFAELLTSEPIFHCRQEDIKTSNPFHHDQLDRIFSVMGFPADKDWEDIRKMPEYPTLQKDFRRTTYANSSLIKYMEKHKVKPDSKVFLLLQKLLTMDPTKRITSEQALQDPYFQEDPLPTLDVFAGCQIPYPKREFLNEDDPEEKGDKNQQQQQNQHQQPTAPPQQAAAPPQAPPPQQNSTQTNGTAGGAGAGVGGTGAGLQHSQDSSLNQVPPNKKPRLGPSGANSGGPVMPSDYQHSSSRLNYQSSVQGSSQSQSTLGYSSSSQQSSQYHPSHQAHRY
Chain of CDK19/Cyclin C (P24863 whole entry partner): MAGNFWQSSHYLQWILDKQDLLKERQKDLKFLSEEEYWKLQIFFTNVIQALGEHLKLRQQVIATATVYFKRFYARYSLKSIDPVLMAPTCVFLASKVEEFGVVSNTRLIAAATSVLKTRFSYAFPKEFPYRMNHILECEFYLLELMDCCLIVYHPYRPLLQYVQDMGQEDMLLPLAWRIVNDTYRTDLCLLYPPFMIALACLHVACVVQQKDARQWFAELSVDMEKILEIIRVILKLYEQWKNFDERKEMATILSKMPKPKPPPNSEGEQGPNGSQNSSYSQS

CDK11A/Cyclin L2 = target: T1, CDK11A/Cyclin L2 (Homo sapiens, UniProt Q9UQ88); test: NanoBRET live-cell target engagement, CDK11A-NanoLuc/Cyclin L2 in HEK-293; assay type: binding; conditions: for inhibition at 10 µM: read-out: CDK11a/L2 Inhibition at 10µM (%); for pIC50: read-out: CDK11a/L2 IC50
T1 sequence (Q9UQ88 1-783): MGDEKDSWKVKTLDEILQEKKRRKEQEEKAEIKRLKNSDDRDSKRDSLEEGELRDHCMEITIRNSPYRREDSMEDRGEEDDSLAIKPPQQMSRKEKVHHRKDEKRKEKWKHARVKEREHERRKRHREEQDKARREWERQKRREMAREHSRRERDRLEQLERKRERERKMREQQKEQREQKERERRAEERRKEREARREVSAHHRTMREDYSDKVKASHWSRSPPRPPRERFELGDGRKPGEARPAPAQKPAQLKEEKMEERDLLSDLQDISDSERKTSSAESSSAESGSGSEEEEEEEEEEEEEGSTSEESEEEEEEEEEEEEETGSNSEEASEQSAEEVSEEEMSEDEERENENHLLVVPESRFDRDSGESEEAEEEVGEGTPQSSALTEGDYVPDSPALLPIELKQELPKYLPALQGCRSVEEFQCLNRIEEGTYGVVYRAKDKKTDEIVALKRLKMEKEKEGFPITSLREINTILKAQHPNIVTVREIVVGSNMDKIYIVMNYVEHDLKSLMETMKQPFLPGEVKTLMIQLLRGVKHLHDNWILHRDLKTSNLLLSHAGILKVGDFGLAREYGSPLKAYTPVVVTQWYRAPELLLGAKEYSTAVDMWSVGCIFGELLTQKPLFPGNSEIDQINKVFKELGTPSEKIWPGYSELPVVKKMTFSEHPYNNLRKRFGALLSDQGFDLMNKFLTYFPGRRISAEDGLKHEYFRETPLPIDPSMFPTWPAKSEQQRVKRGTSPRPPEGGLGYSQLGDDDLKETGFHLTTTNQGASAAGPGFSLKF

CDK5/CDK5R1 = CDK5/CDK5R1 (Homo sapiens, UniProt Q00535); test: NanoBRET live-cell target engagement, CDK5-NanoLuc/CDK5R1 in HEK-293; assay type: binding; conditions: for inhibition at 10 µM: read-out: CDK5/CDK5R1 Inhibition at 10µM (%)
Chain of CDK5/CDK5R1 (Q00535 whole entry): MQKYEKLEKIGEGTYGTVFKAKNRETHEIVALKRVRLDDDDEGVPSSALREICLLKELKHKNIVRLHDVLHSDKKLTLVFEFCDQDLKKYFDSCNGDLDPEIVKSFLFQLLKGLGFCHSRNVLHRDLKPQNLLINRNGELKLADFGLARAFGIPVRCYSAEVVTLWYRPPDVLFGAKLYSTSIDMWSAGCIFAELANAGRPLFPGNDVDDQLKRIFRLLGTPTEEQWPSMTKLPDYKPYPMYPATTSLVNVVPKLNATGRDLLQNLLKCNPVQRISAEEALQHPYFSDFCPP
Chain of CDK5/CDK5R1 (Q15078 whole entry partner): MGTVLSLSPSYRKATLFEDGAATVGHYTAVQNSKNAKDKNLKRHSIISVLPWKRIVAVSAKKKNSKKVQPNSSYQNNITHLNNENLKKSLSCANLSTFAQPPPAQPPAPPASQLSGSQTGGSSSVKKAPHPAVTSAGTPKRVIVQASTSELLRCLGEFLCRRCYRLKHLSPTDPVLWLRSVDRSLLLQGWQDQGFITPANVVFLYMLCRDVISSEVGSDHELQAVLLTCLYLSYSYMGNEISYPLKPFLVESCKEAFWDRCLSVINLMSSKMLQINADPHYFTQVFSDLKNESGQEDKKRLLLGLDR

inhibition at 10 µM (CDK20/Cyclin H; independent experiment 1): 79.2% | inhibition at 10 µM (CDK20/Cyclin H; independent experiment 2): 82.8% | inhibition at 10 µM (CDK8/Cyclin C; average of experiments): 72.3% | inhibition at 10 µM (CDK8/Cyclin C; independent experiment 1): 57.3% | inhibition at 10 µM (CDK8/Cyclin C; independent experiment 2): 87.3% | inhibition at 10 µM (CDK14/Cyclin Y; average of experiments): 97.2% | inhibition at 10 µM (CDK14/Cyclin Y; independent experiment 1): 96% | inhibition at 10 µM (CDK14/Cyclin Y; independent experiment 2): 98.5% | pIC50 (CDK14/Cyclin Y; average (± SEM where n=3), read-out: CDK14/Y IC50): 7.54 | pIC50 (CDK14/Cyclin Y; independent experiment 1, read-out: CDK14/Y IC50): 7.55 | pIC50 (CDK14/Cyclin Y; independent experiment 2, read-out: CDK14/Y IC50): 7.54 | pIC50 (CDK14/Cyclin Y; live HEK-293, 2 h, mean ± S.E.M. (n=3) or mean (n=2), read-out: IC50 for CDK/cyclin complexes, CDK14/Y): 7.54 | inhibition at 10 µM (CDK9/Cyclin K; average of experiments): 99.7% | inhibition at 10 µM (CDK9/Cyclin K; independent experiment 1): 100% | inhibition at 10 µM (CDK9/Cyclin K; independent experiment 2): 99.2% | inhibition at 10 µM (CDK16/Cyclin Y; independent experiment 1): 96.3% | inhibition at 10 µM (CDK16/Cyclin Y; independent experiment 2): 92.9% | inhibition at 10 µM (CDK18/Cyclin Y; average of experiments): 101% | inhibition at 10 µM (CDK18/Cyclin Y; independent experiment 1): 98.4% | inhibition at 10 µM (CDK18/Cyclin Y; independent experiment 2): 103% | pIC50 (CDK18/Cyclin Y; average (± SEM where n=3)): 7.09 | pIC50 (CDK18/Cyclin Y; independent experiment 1): 7.00 | pIC50 (CDK18/Cyclin Y; independent experiment 2): 7.19 | inhibition at 10 µM (CDK12/Cyclin K; average of experiments): 60.9% | inhibition at 10 µM (CDK12/Cyclin K; independent experiment 1): 45.8% | inhibition at 10 µM (CDK12/Cyclin K; independent experiment 2): 76% | pIC50 (CDK12/Cyclin K; average (n=2)): 6.17 | pIC50 (CDK12/Cyclin K; independent experiment 1): 6.21 | pIC50 (CDK12/Cyclin K; independent experiment 2): 6.12 | inhibition at 10 µM (CDK15/Cyclin Y; average of experiments): 98.1% | inhibition at 10 µM (CDK15/Cyclin Y; independent experiment 1): 97.4% | inhibition at 10 µM (CDK15/Cyclin Y; independent experiment 2): 98.7% | pIC50 (CDK15/Cyclin Y; average (± SEM where n=3)): 7.24 | pIC50 (CDK15/Cyclin Y; independent experiment 1): 7.26 | pIC50 (CDK15/Cyclin Y; independent experiment 2): 7.21 | inhibition at 10 µM (CDK19/Cyclin C; average of experiments): 74.8% | inhibition at 10 µM (CDK19/Cyclin C; independent experiment 1): 62.1% | inhibition at 10 µM (CDK19/Cyclin C; independent experiment 2): 87.4% | inhibition at 10 µM (CDK11A/Cyclin L2; average of experiments): 95.6% | inhibition at 10 µM (CDK11A/Cyclin L2; independent experiment 1): 93.3% | inhibition at 10 µM (CDK11A/Cyclin L2; independent experiment 2): 97.9% | pIC50 (CDK11A/Cyclin L2; average (± SEM where n=3)): 6.72 | pIC50 (CDK11A/Cyclin L2; independent experiment 1): 6.70 | pIC50 (CDK11A/Cyclin L2; independent experiment 2): 6.74 | inhibition at 10 µM (CDK5/CDK5R1; average of experiments): 93.3% | inhibition at 10 µM (CDK5/CDK5R1; independent experiment 1): 88.5% | inhibition at 10 µM (CDK5/CDK5R1; independent experiment 2): 98.1% | pIC50 (CDK5/CDK5R1; average (± SEM where n=3), read-out: CDK5/CDK5R1 IC50): 6.74
Compound: CN1C/C=C/CCOc2cccc(c2)-c2ccnc(n2)Nc2cccc(c2)C1 [SB1317]
